{
  "source": "patent US9718809B2",
  "about": "“Bisarylsulfonamides useful in the treatment of inflammation and cancer” (Kancera AB, priority 2011, dated 2017)",
  "note": "pIC50: −log10 of the molar value. Counter-ions that a name gives are not always drawn.",
  "data": [
    {"tested_on": "F-2,6-P2 in PANC-1 cells", "assay": "Quantification of F-2,6-P2 (Van Schaftingen coupled enzyme assay) in PANC-1 cells", "format": "cell-based, human", "details": "Homo sapiens; PANC-1 cells; read-out: IC50 based on quantification of F-2,6-P2", "source_text": "(§1) A method for quantification of F-2,6-P2 has been described by Van Schaftingen et al. (1982) Eur. J. Biochem. 129, 191-5. This sensitive assay is based on the potent activation of pyrophosphate dependent phosphofructokinase-1 (PPi-PFK) from potato tubers by F-2,6-P2. The use of a series of coupled enzymes leads to a consumption of NADH (nicotinamide adenine dinucleotide) that can be followed spectrophotometrically (an updated protocol is available in Van Schaftingen, (1984) Methods of Enzymatic Analysis (Bergmeyer, H. U., ed.), 3rd edn., vol. 6, pp. 335-341, Verlag Chemie, Weinheim). A protocol for measurements in 96-well microtiter plate format is also available (Bruni et al., (1989) Anal. Biochem. 178, 324-6).\n(§2) The levels of F-2,6-P2 have been determined using the van Shaftingen assay as described in the protocol below, in six different cancer cell lines endogenously expressing varying levels of the different isoforms of PFK-2/BPase-2 (MCF-7, PANC-1, NUGC-3, SW480, SW620 and MIA PaCa-2). All reagents were purchased from commercial sources or prepared in-house.\n(§3) Cell line B (PANC-1, human pancreatic carcinoma cell line): PANC-1 cells (ATCC-CRL-1469), lot. no. 58564651. Cells were seeded at a concentration of ˜250 000 cells/mL in 100 μL growth medium (˜25 000 cells/well).\n(§4) Growth medium (cell lines B-F): Dulbecco's Modified Eagle's Medium, DMEM, VWR, LONZ12-604F; 10% FBS, Invitrogen, 10270-106.\n(§5) Starvation medium (cell lines A-F): DMEM/F12 without phenol red and glucose free, SVA, 991373; 0.25% FBS, Invitrogen, 10270-106.\n(§6) Induction medium (cell lines A-F): DMEM/F12 without phenol red and glucose free, SVA, 991373; 0.25% FBS, Invitrogen, 10270-106 (same as starvation medium).\n(§7) Cells were seeded in 96-well Corning Costar tissue culture plates (CLS3595, Sigma-Aldrich) using the concentrations specified above for the different cell lines A-F and incubated over night at 37° C. and 5% CO2. Row A in the plate was left empty and the cell lines added to rows B-H. Next day the growth medium was discarded and replaced with 100 μL starvation medium. The plates were incubated for 18 h at 37° C. and 5% CO2. After 18 h of starvation the cells were induced with 100 μL compound or control solutions. Compounds were either tested in two concentrations (50 μM and 10 μM) or in dose response curves starting from 50 μM. The final DMSO concentration in assay plates was 0.5%. Also a dose response curve of a reference inhibitor was included in row H on each plate. All compounds were tested in duplicate plates. Compounds (in 96 well CLS 3365, Sigma-Aldrich plates) were serial diluted in DMSO from 10 mM compound DMSO stock solutions with Janus (automated liquid handling workstation from PerkinElmer). Five μL were transferred to a Greiner deep well plate (736-0155, VWR) with 495 μL starvation medium. The final start concentration of compounds in the dilution plate was 100 μM, 1% DMSO. For compounds tested as single points, 10 mM compound solutions were diluted five fold in DMSO to 2 mM, followed by the transfer of 5 μL to separate dilution plates with 495 μL starvation medium. The final concentrations of compounds in these dilution plates were 100 or 20 μM, respectively, and final concentration of DMSO was 1%. The plates were incubated at 37° C. and 5% CO2 for 1 h, followed by the addition of 10 μL 20 mM D-glucose in starvation medium. Controls, with and without 1 mM glucose, were included in row B. The final assay volume was 210 μL per well. After 2 h of incubation at 37° C. and 5% CO2, the supernatants were discarded and the cells lysed by the addition of 25 μL 250 mM NaOH. The plates were incubated at 37° C. and 5% CO2 for 5 min followed by an addition of 75 μL MilliQ dH2O. The supernatants were further diluted with 210 μL MilliQ dH2O to a final concentration of 20 mM NaOH. 200 μL were transferred to NUNC 96-well plates (7322661, VWR) and the plates were sealed and stored at −20° C. until analysis. […]", "values": [
      {"smiles": "CCOCCOC(=O)c1ccc(NS(=O)(=O)c2cc(Cl)sc2Cl)cc1O", "note": "[Example 66, 2-Ethoxyethyl 4-{[(2,5-dichloro-3-thienyl)sulfonyl]amino}-2-hydroxybenzoate]", "pIC50": 5.24},
      {"smiles": "COC(=O)c1ccc(NS(=O)(=O)c2cc(-c3cccc(N)c3)c(Cl)s2)cc1O", "note": "[Example 107, Methyl 4-({[4-(3-aminophenyl)-5-chlorothiophen-2-yl]sulfonyl}amino)-2-hydroxybenzoate trifluoroacetate]", "pIC50": 5.55},
      {"smiles": "COC(=O)c1ccc(NS(=O)(=O)c2cccc(-c3cccc(C(N)=O)c3)c2)cc1O", "note": "[Example 113, Methyl 4-{[(3′-carbamoylbiphenyl-3-yl)sulfonyl]amino}-2-hydroxybenzoate]", "pIC50": 5.27},
      {"smiles": "COC(=O)c1ccc(NS(=O)(=O)c2cc(Br)c(F)cc2F)cc1O", "note": "[Example 49, Methyl 4-{[(5-bromo-2,4-difluorophenyl)sulfonyl]amino}-2-hydroxybenzoate]", "pIC50": 5.24},
      {"smiles": "O=C(OCCn1cccc1)c1ccc(NS(=O)(=O)c2cc(Cl)c(Cl)s2)cc1O", "note": "[Example 61, 2-(1H-Pyrrol-1-yl)ethyl 4-{[(4,5-dichlorothiophen-2-yl)sulfonyl]amino}-2-hydroxybenzoate]", "pIC50": 6.22},
      {"smiles": "COC(=O)c1ccc(NS(=O)(=O)c2cc(-c3cccc(C(=O)N(C)C)c3)c(Cl)s2)cc1O", "note": "[Example 143, Methyl 4-[({5-chloro-4-[3-(dimethylcarbamoyl)phenyl]thiophen-2-yl}sulfonyl)amino]-2-hydroxybenzoate]", "pIC50": 5.62},
      {"smiles": "COC(=O)c1ccc(NS(=O)(=O)Cc2ccc(Br)cc2)cc1O", "note": "[Example 24, Methyl 4-{[(4-bromobenzyl)sulfonyl]amino}-2-hydroxybenzoate]", "pIC50": 4.98},
      {"smiles": "COCCOC(=O)c1ccc(NS(=O)(=O)c2cc(-c3ccccc3O)c(Cl)s2)cc1O", "note": "[Example 133, 2-Methoxyethyl 4-({[5-chloro-4-(2-hydroxyphenyl)-2-thienyl]sulfonyl}amino)-2-hydroxybenzoate]", "pIC50": 5.92},
      {"smiles": "COC(=O)c1ccc(NS(=O)(=O)c2cc(-c3cccnc3)c(Cl)s2)cc1O", "note": "[Example 111, Methyl 4-{[(5-chloro-4-pyridin-3-ylthiophen-2-yl)sulfonyl]amino}-2-hydroxybenzoate]", "pIC50": 5.34},
      {"smiles": "COC(=O)c1ccc(NS(=O)(=O)c2cc(-c3ccc(NS(C)(=O)=O)cc3)c(Cl)s2)cc1O", "note": "[Example 108, Methyl 4-{[(5-chloro-4-{4-[(methylsulfonyl)amino]phenyl}thiophen-2-yl)sulfonyl]amino}-2-hydroxybenzoate]", "pIC50": 5.11},
      {"smiles": "COC(=O)c1ccc(NS(=O)(=O)c2cccc3c(N(C)C)cccc23)cc1O", "note": "[Example 40, Methyl 4-({[5-(dimethylamino)naphthalen-1-yl]sulfonyl}amino)-2-hydroxybenzoate trifluoroacetate]", "pIC50": 5.68},
      {"smiles": "O=C(OCCCN1CCOCC1)c1ccc(NS(=O)(=O)c2cc(-c3cc(F)ccc3O)c(Cl)s2)cc1O", "note": "[Example 213, 3-Morpholin-4-ylpropyl 4-({[5-chloro-4-(5-fluoro-2-hydroxyphenyl)-2-thienyl]sulfonyl}amino)-2-hydroxybenzoate trifluoroacetate]", "pIC50": 6.22},
      {"smiles": "COC(=O)c1ccc(NS(=O)(=O)c2c(Cl)sc(Cl)c2C)cc1O", "note": "[Example 53, Methyl 4-{[(2,5-dichloro-4-methyl-3-thienyl)sulfonyl]amino}-2-hydroxybenzoate]", "pIC50": 5.51},
      {"smiles": "COC(=O)c1ccc(NS(=O)(=O)c2cccc(-c3ccccc3)c2)cc1O", "note": "[Example 87, Methyl 4-[(biphenyl-3-ylsulfonyl)amino]-2-hydroxybenzoate]", "pIC50": 5.80},
      {"smiles": "O=C(OCCO)c1ccc(NS(=O)(=O)c2cc(-c3ccccc3)c(Cl)s2)cc1O", "note": "[Example 217, 2-Hydroxyethyl 4-{[(5-chloro-4-phenyl-2-thienyl)sulfonyl]amino}-2-hydroxybenzoate]", "pIC50": 5.85},
      {"smiles": "COC(=O)c1ccc(NS(=O)(=O)c2cccc(-c3ccc4ncccc4c3)c2)cc1O", "note": "[Example 91, Methyl 2-hydroxy-4-{[(3-quinolin-6-ylphenyl)sulfonyl]amino}benzoate trifluoroacetate]", "pIC50": 5.35},
      {"smiles": "COCC(COC)OC(=O)c1ccc(NS(=O)(=O)c2cc(-c3cccc(F)c3)c(Cl)s2)cc1O", "note": "[Example 222, 2-Methoxy-1-(methoxymethyl)ethyl 4-({[5-chloro-4-(3-fluorophenyl)-2-thienyl]sulfonyl}amino)-2-hydroxybenzoate]", "pIC50": 5.70},
      {"smiles": "COC(=O)c1ccc(NS(=O)(=O)c2cccc(OC(F)(F)F)c2)cc1O", "note": "[Example 44, Methyl 2-hydroxy-4-({[3-(trifluoromethoxy)phenyl]sulfonyl}amino)benzoate]", "pIC50": 5.24},
      {"smiles": "COC(=O)c1ccc(NS(=O)(=O)c2cc(Cl)c(-c3ccccc3O)s2)cc1O", "note": "[Example 206, Methyl 4-({[4-chloro-5-(2-hydroxyphenyl)thiophen-2-yl]sulfonyl}amino)-2-hydroxybenzoate]", "pIC50": 5.05},
      {"smiles": "COC(=O)c1ccc(NS(=O)(=O)c2ccc(C(F)(F)F)cc2)cc1O", "note": "[Example 16, Methyl 2-hydroxy-4-({[4-(trifluoromethyl)phenyl]sulfonyl}amino)benzoate]", "pIC50": 5.34}
    ]},
    {"tested_on": "F-2,6-P2 in PANC-1 cells", "assay": "Quantification of F-2,6-P2 (Van Schaftingen coupled enzyme assay) in PANC-1 cells", "format": "cell-based, human", "details": "at 12.5-50 μM in PANC-1 cells", "source_text": "as §1, §2, §3, §4, §5, §6, §7", "units": {"inhibition (F-2,6-P2 levels)": "%"}, "values": [
      {"smiles": "COC(=O)c1cccc(-c2cc(S(=O)(=O)Nc3ccc(C(=O)OC)c(O)c3)sc2Cl)c1", "note": "[Example 77, Methyl 4-[({5-chloro-4-[3-(methoxycarbonyl)phenyl]thiophen-2-yl}sulfonyl)amino]-2-hydroxybenzoate]", "inhibition (F-2,6-P2 levels)": "≥ 50"},
      {"smiles": "O=C(O)C(F)(F)F.O=C(OCCOc1ccc(Cl)nc1)c1ccc(NS(=O)(=O)c2cc(Cl)c(Cl)s2)cc1O", "note": "[Example 226, 2-[(6-Chloropyridin-3-yl)oxy]ethyl 4-{[(4,5-dichloro-2-thienyl)sulfonyl]amino}-2-hydroxybenzoate trifluoroacetate]", "inhibition (F-2,6-P2 levels)": "≥ 50"},
      {"smiles": "COC(=O)c1ccc(NS(=O)(=O)c2cncc(-c3cccc(OC)c3F)c2)cc1O", "note": "[Example 130, Methyl 4-({[5-(2-fluoro-3-methoxyphenyl)pyridin-3-yl]sulfonyl}amino)-2-hydroxybenzoate]", "inhibition (F-2,6-P2 levels)": "≥ 50"},
      {"smiles": "COC(=O)c1ccc(NS(=O)(=O)c2ccc(Cl)cc2)cc1O", "note": "[Example 42, Methyl 4-{[(4-chlorophenyl)sulfonyl]amino}-2-hydroxybenzoate]", "inhibition (F-2,6-P2 levels)": "≥ 50"},
      {"smiles": "CC(=O)Oc1cc(NS(=O)(=O)c2cccc3ccccc23)ccc1C(=O)OCc1ccccc1", "note": "[Example 140, Benzyl 2-acetoxy-4-[(1-naphthylsulfonyl)amino]benzoate]", "inhibition (F-2,6-P2 levels)": "≥ 50"},
      {"smiles": "CN1CCN(CCCOC(=O)c2ccc(NS(=O)(=O)c3cc(Cl)c(Cl)s3)cc2O)CC1.O=C(O)C(F)(F)F", "note": "[Example 65, 3-(4-Methylpiperazin-1-yl)propyl 4-{[(4,5-dichlorothiophen-2-yl)sulfonyl]amino}-2-hydroxybenzoate trifluoroacetate]", "inhibition (F-2,6-P2 levels)": "≥ 50"},
      {"smiles": "COC(=O)c1ccc(NS(=O)(=O)c2cccc(-c3ccc(SC)cc3)c2)cc1O", "note": "[Example 98, Methyl 2-hydroxy-4-({[4′-(methylsulfanyl)biphenyl-3-yl]sulfonyl}amino)benzoate]", "inhibition (F-2,6-P2 levels)": "≥ 50"},
      {"smiles": "COCc1cccc(OCCOC(=O)c2ccc(NS(=O)(=O)c3cc(Cl)c(Cl)s3)cc2O)c1", "note": "[Example 227, 2-[3-(Methoxymethyl)phenoxy]ethyl 4-{[(4,5-dichloro-2-thienyl)sulfonyl]amino}-2-hydroxybenzoate]", "inhibition (F-2,6-P2 levels)": "≥ 50"}
    ]}
  ]
}
